System: 144 ydaO (RNA, riboswitch) GGGAAAACAAAUCGCUUAAUCUGAAAUCAGAGCGGGGGACCCAAUAGAACGGCUUUUUGCCGUUGGGGUGAAUCCUUUUUAGGUAGGGCUAACUCUCAUAUGCCCGAAUCCGUCAGCUAACCUCGUAAGCGUUCGUGAGAGGAGAU
Assay: in-line probing
Conditions: low millimolar; tested to 3.16 mM; taken as the shorter construct of b32

binding: weak
SMILES: Nc1ncnc2c1ncn2[C@@H]1O[C@H](COP(=O)(O)OP(=O)(O)OP(=O)(O)O)[C@@H](O)[C@H]1O

Reference: paper PMC3830699 (2013)
